One assay has as its system SK-OV-3. The assay can be described thus: Cytotoxicity against human SKOV3 cells after 48 hrs by sulforhodamine B assay. Type of assay: functional. Conditions: SK-OV-3, 48 h, read-out: ED50 (the source's name). Background: In SRB staining, fixed cells bind dye roughly in proportion to their protein.
A further assay relates to SK-MEL-2. The assay can be described thus: Cytotoxicity against human SK-MEL-2 cells after 48 hrs by sulforhodamine B assay. Type of assay: functional. The following applies: SK-MEL-2, 48 h, read-out: ED50 (the source's name).
The subject of a further assay is HCT-15. The assay can be described thus: Cytotoxicity against human HCT15 cells after 48 hrs by sulforhodamine B assay. Type of assay: functional. Conditions: HCT-15, 48 h, read-out: ED50 (the source's name).
Another assay relates to XF498. The assay can be described thus: Cytotoxicity against human XF498 cells after 48 hrs by sulforhodamine B assay. The following applies: XF498, 48 h, read-out: ED50 (the source's name). The assay is classed as functional.
A further assay relates to A549. The assay can be described thus: Cytotoxicity against human A549 cells after 48 hrs by sulforhodamine B assay. Type of assay: functional. The following applies: A549, 48 h, read-out: ED50 (the source's name).
Assay [1] has as its system Pseudomonas aeruginosa. The assay can be described thus: Antibacterial activity against […] resistant Pseudomonas aeruginosa 9027 at 100 ug/ml after 18 hrs by serial dilution. The assay is classed as functional, organism-based.
Assay [2] has as its system Pseudomonas aeruginosa. Put plainly: Antibacterial activity against […] resistant Pseudomonas aeruginosa 1771 at 100 ug/ml after 18 hrs by serial dilution. Type of assay: functional, organism-based.
The next assay relates to Klebsiella aerogenes. The assay can be described thus: Antibacterial activity against […] resistant Klebsiella aerogenes 1522E at 100 ug/ml after 18 hrs by serial dilution. Type of assay: functional, organism-based.
The test system of assay [3] is Streptococcus pyogenes. Put plainly: Antibacterial activity against […] resistant Streptococcus pyogenes 308A at 100 ug/ml after 18 hrs by serial dilution. Type of assay: functional, organism-based.
For assay [4], the system named is Escherichia coli. The assay can be described thus: Antibacterial activity against […] resistant Escherichia coli TEM at 100 ug/ml after 18 hrs by serial dilution. Type of assay: functional, organism-based.
The subject of assay [5] is Staphylococcus aureus. Put plainly: Antibacterial activity against […] resistant Staphylococcus aureus SG 511 at 100 ug/ml after 18 hrs by serial dilution. Type of assay: functional, organism-based.
The test system of assay [6] is Escherichia coli. The assay can be described thus: Antibacterial activity against […] resistant Escherichia coli DC 0 at 100 ug/ml after 18 hrs by serial dilution. The assay is classed as functional, organism-based.
In assay [7] the test system is RAW264.7. The assay can be described thus: Antiinflammatory activity in mouse RAW264.7 cells assessed as inhibition of NO production at 100 ug/ml. The assay is classed as functional, cell-based.
Assay [8] deals with Escherichia coli. Put plainly: Antibacterial activity against […] resistant Escherichia coli 078 at 100 ug/ml after 18 hrs by serial dilution. The assay is classed as functional, organism-based.
Assay [9] has as its system Streptococcus pyogenes. The assay can be described thus: Antibacterial activity against […] resistant Streptococcus pyogenes 77A at 100 ug/ml after 18 hrs by serial dilution. The assay is classed as functional, organism-based.
Assay [10] concerns RAW264.7. Put plainly: Antiinflammatory activity in mouse RAW264.7 cells assessed as inhibition of IL-6 production at 100 ug/ml. Type of assay: functional, cell-based.
The test system of the next assay is Salmonella enterica. Put plainly: Antibacterial activity against […] resistant Salmonella Typhimurium at 100 ug/ml after 18 hrs by serial dilution. The assay is classed as functional, organism-based. The following applies: Salmonella enterica subsp. enterica serovar Typhimurium.
The subject of assay [11] is Escherichia coli. Put plainly: Antibacterial activity against […] resistant Escherichia coli 1507E at 100 ug/ml after 18 hrs by serial dilution. Type of assay: functional, organism-based.
The subject of assay [12] is Pseudomonas aeruginosa. The assay can be described thus: Antibacterial activity against […] resistant Pseudomonas aeruginosa 1771M at 100 ug/ml after 18 hrs by serial dilution. Type of assay: functional, organism-based.
Assay [13] has as its system Enterobacter cloacae. Put plainly: Antibacterial activity against […] resistant Enterobacter cloacae P 99 at 100 ug/ml after 18 hrs by serial dilution. The assay is classed as functional, organism-based.
Assay [14] relates to RAW264.7. Put plainly: Antiinflammatory activity in mouse RAW264.7 cells assessed as inhibition of TNFalpha production at 100 ug/ml. Type of assay: functional, cell-based.
The subject of a further assay is Enterococcus faecium. Put plainly: Antibacterial activity against […] resistant Streptococcus faecium MD 8b at 100 ug/ml after 18 hrs by serial dilution. The assay is classed as functional, organism-based.
Assay [15] has as its system Pseudomonas aeruginosa. Put plainly: Antibacterial activity against […] resistant Pseudomonas aeruginosa 1592E at 100 ug/ml after 18 hrs by serial dilution. Type of assay: functional, organism-based.
Assay [16] relates to Staphylococcus aureus. The assay can be described thus: Antibacterial activity against methicillin resistant Staphylococcus aureus 285 at 100 ug/ml after 18 hrs by serial dilution. Type of assay: functional, organism-based.
The next assay deals with Klebsiella oxytoca. Put plainly: Antibacterial activity against […] resistant Klebsiella oxytoca 1082E at 100 ug/ml after 18 hrs by serial dilution. Type of assay: functional, organism-based.
For assay [17], the system named is Escherichia coli. Put plainly: Antibacterial activity against […] resistant Escherichia coli DC 2 at 100 ug/ml after 18 hrs by serial dilution. Type of assay: functional, organism-based.
The subject of assay [18] is Enterobacter cloacae. The assay can be described thus: Antibacterial activity against […] resistant Enterobacter cloacae 1321E at 100 ug/ml after 18 hrs by serial dilution. Type of assay: functional, organism-based.
For assay [19], the system named is Staphylococcus aureus. Put plainly: Antibacterial activity against methicillin resistant Staphylococcus aureus 503 at 100 ug/ml after 18 hrs by serial dilution. Type of assay: functional, organism-based.

In brackets after ≈: the same amount, converted by molar mass. Activity calls are given as the source filed them. No cut-off for these calls is given here.

In the case of `O=C(O)CCC/C=C/[C@@H]1C=C[C@@H]2CCC[C@H]2[C@H]1/C=C/C=C/C(=O)NCCc1ccccc1` [APLIDIC ACID C], the EC50 with SK-OV-3 is 14.7 µg/mL (≈ 33.9 µM); in the assay on SK-MEL-2, 14.5 µg/mL (≈ 33.4 µM); in the assay with HCT-15, 12 µg/mL (≈ 27.7 µM); in the assay with XF498 it was 14 µg/mL (≈ 32.3 µM); in the assay with A549, 12.3 µg/mL (≈ 28.4 µM).

With `COC(=O)/C=C/C=C/[C@@H]1[C@@H]2CCC[C@H]2C=C[C@H]1/C=C/C=C/CCCC(=O)NCCC(=O)NCCc1c[nH]c2ccccc12` [APLIDIC ACID AMIDE A], the EC50 in the assay on SK-OV-3 came to 17.2 µg/mL (≈ 29.5 µM); with SK-MEL-2, 11.7 µg/mL (≈ 20 µM); in the assay on HCT-15, 13.5 µg/mL (≈ 23.1 µM); in the assay on XF498, 15.6 µg/mL (≈ 26.7 µM); in the assay on A549, 17.5 µg/mL (≈ 30 µM).

Regarding `COC(=O)/C=C/C=C/[C@@H]1[C@@H]2CCC[C@H]2C=C[C@H]1/C=C/C=C/CCCC(=O)O` [APLIDIC ACID A], the EC50 stood at 15.2 µg/mL (≈ 41 µM) in the assay on SK-OV-3; 11.6 µg/mL (≈ 31.3 µM) with SK-MEL-2; 12.4 µg/mL (≈ 33.5 µM) in the assay with HCT-15; 19.5 µg/mL (≈ 52.6 µM) in the assay on XF498; 25.2 µg/mL (≈ 68 µM) in the assay with A549. Moreover, the outcome in the assay on Pseudomonas aeruginosa [1], in the assay on Pseudomonas aeruginosa [2], in the assay with Klebsiella aerogenes, with Streptococcus pyogenes [3], with Escherichia coli [4] and with Staphylococcus aureus [5] was inactive. For the same compound, the outcome in the assay on Escherichia coli [6], with RAW264.7 [7], in the assay on Escherichia coli [8], with Streptococcus pyogenes [9], in the assay with RAW264.7 [10] and in the assay on Salmonella enterica was inactive. Further, the outcome in the assay on Escherichia coli [11], in the assay on Pseudomonas aeruginosa [12], with Enterobacter cloacae [13], with RAW264.7 [14], in the assay with Enterococcus faecium and with Pseudomonas aeruginosa [15] was inactive. Further, the outcome in the assay with Staphylococcus aureus [16], in the assay with Klebsiella oxytoca, in the assay on Escherichia coli [17], in the assay with Enterobacter cloacae [18] and with Staphylococcus aureus [19] was inactive.

For `O=C(O)CCC/C=C/C=C/[C@@H]1C=C[C@@H]2CCC[C@H]2[C@H]1/C=C/C=C/C(=O)NCCc1ccccc1` [APLIDIC ACID B], the EC50 was 13.5 µg/mL (≈ 29.4 µM) in the assay on SK-OV-3; 11.4 µg/mL (≈ 24.8 µM) in the assay with SK-MEL-2; 13.5 µg/mL (≈ 29.4 µM) in the assay with HCT-15; 21.6 µg/mL (≈ 47 µM) in the assay on XF498; 28.4 µg/mL (≈ 61.8 µM) in the assay with A549.

Regarding `COc1cccc2c1C(=O)c1c(O)c3c(c(O)c1C2=O)C[C@@](O)(C(=O)CO)C[C@@H]3O[C@H]1C[C@H](N)[C@H](O)[C@H](C)O1` [DOXORUBICIN], the EC50 in the assay on SK-OV-3 was found to be 0.003 µg/mL (≈ 0.00552 µM); with SK-MEL-2 it was 0.001 µg/mL (≈ 0.00184 µM); in the assay with HCT-15, 0.071 µg/mL (≈ 0.131 µM); with XF498, 0.029 µg/mL (≈ 0.0534 µM); in the assay on A549 it was 0.001 µg/mL (≈ 0.00184 µM).
